These results are taken from ChEMBL document CHEMBL1201862, “PubChem BioAssay data set” (2004).

What all share (experiment): NCI anticancer screen, dose series, 48 h
Assay [1] deals with 786-0.
Assay [2] deals with A498.
Assay [3] has as its system ACHN.
The subject of assay [4] is COLO 205.
In assay [5] the test system is DU-145.
Assay [6] has as its system HOP-62.
Assay [7] has as its system HOP-92.
Assay [8] concerns IGROV-1.
Assay [9] relates to KM12.
In assay [10] the test system is M14.
Assay [11] concerns MCF7.
Assay [12] relates to MDA-N.
Assay [13] relates to NCI-H226.
In assay [14] the test system is NCI-H460.
Assay [15] relates to PC-3.
Assay [16] relates to RPMI-8226.
Assay [17] concerns SK-MEL-28.
Assay [18] has as its system SN12C.
Assay [19] concerns SR.
For assay [20], the system named is SNB-75.

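A five-concentration, 48-hour dose response in 96-well plates underlies each endpoint, interpolated linearly between surrounding concentrations. GI50 marks 50% less growth.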 The source made the active and inactive calls. Rule as the data show it: active = GI50 up to about 1.1 µM and inactive = higher. Where a SMILES comes first, the peptide text is derived from it. The star is where a group is joined. Cbz = O=C(OCc1ccccc1)*; Bn = c1ccc(C*)cc1

For `Nc1c2c(=O)[nH]c(=O)c2c(N)c2c(=O)c3ccccc3c(=O)c12`, the GI50 in assay [1] was 2.69 µM (inactive); in assay [2], 1.12 µM (inactive); in assay [3] it was 2.24 µM (inactive); in assay [4], 0.687 µM (active); in assay [5], 1.56 µM (inactive); in [6], 3.13 µM (inactive). The GI50 in [7] is 12.9 µM (inactive); in [8], 1.65 µM (inactive); in [9] it was 1.83 µM (inactive); in assay [10], 0.243 µM (active); in [11], 1.16 µM (inactive); in assay [12] it was 0.212 µM (active). Besides, the GI50 is 1.85 µM (inactive) in [13]; 0.869 µM (active) in assay [14]; 2.49 µM (inactive) in assay [15]; 2.05 µM (inactive) in [16]; 2.03 µM (inactive) in assay [17]; 1.52 µM (inactive) in assay [18]. Further, the GI50 in assay [19] was 2.74 µM (inactive).

For `N/C(S)=N/N=C/c1ccc(O)cn1`, the GI50 in [2] was 32 µM (inactive); in [3], 1.73 µM (inactive); in assay [5], 2.96 µM (inactive); in [6], 4.59 µM (inactive); in [7], 4.68 µM (inactive); in [8] it was 21.3 µM (inactive). Besides, the GI50 in assay [9] is 11.1 µM (inactive); in assay [10], 5.11 µM (inactive); in assay [11], 3.18 µM (inactive); in assay [12] it was 8.45 µM (inactive); in assay [13] it was 24.2 µM (inactive); in [14], 18.5 µM (inactive). For the same compound, the GI50 in assay [15] was 7.1 µM (inactive); in assay [16] it was 10.7 µM (inactive); in [17] it was 30.1 µM (inactive); in assay [18], 5.35 µM (inactive); in [20], 9.06 µM (inactive); in assay [19] it was 1.64 µM (inactive).

Consider `COc1ccc2c(c1)CCC(CN1CCN(CCOC(c3ccccc3)c3ccccc3)CC1)C2O` (stereo not drawn), for which the GI50 was 16.6 µM (inactive) in assay [1]; 10.5 µM (inactive) in assay [2]; 12.6 µM (inactive) in assay [3]; 12.6 µM (inactive) in assay [4]; 20.1 µM (inactive) in [5]; 19 µM (inactive) in [6]. The GI50 in [7] is 14.4 µM (inactive); in assay [8], 15.4 µM (inactive); in [9], 18.3 µM (inactive); in [10] it was 14.2 µM (inactive); in assay [11], 18.9 µM (inactive); in assay [12] it was 14.3 µM (inactive). Besides, the GI50 in assay [13] was 16.3 µM (inactive); in assay [14], 16.7 µM (inactive); in assay [15] it was 13.5 µM (inactive); in [16], 11 µM (inactive); in assay [17], 16.5 µM (inactive); in assay [18], 13.5 µM (inactive). Moreover, the results for the GI50 in [20] and in assay [19] were 17.9 µM (inactive) and 16.7 µM (inactive), respectively.

As to `COC(=O)C(Cc1ccc(O)cc1)NC(=O)C(COCc1ccccc1)NC(=O)OCc1ccccc1` (stereo not drawn) (Cbz-Ser(Bn)-Tyr-OMe; configuration not given here), the GI50 is 26.3 µM (inactive) in [2]; 17.4 µM (inactive) in assay [3]; 17.1 µM (inactive) in [4]; 17.3 µM (inactive) in assay [5]; 19 µM (inactive) in [6]; 25.5 µM (inactive) in assay [7]. Moreover, the GI50 was 17.6 µM (inactive) in assay [8]; 19.8 µM (inactive) in [9]; 19.4 µM (inactive) in assay [10]; 19.3 µM (inactive) in assay [11]; 17.6 µM (inactive) in assay [12]; 20.1 µM (inactive) in [13]. Also, the GI50 was 4.13 µM (inactive) in [14]; 19.1 µM (inactive) in [15]; 74.6 µM (inactive) in assay [16]; 20.9 µM (inactive) in [17]; 18.4 µM (inactive) in assay [18]; 14.9 µM (inactive) in assay [20]. Also, the GI50 in assay [19] was > 100 µM (inactive).

Regarding `CC(C)(C)c1cc(C(=O)/C=C/c2ccc(C(=O)O)cc2)cc(C(C)(C)C)c1`, the GI50 in assay [1] was 4.09 µM (inactive); in assay [2], 1.92 µM (inactive); in assay [3], 4 µM (inactive); in assay [4], 2.12 µM (inactive); in assay [5], 2.77 µM (inactive); in [6], 2.32 µM (inactive). The GI50 in assay [7] was 6.68 µM (inactive); in [8], 3.8 µM (inactive); in assay [9], 2.4 µM (inactive); in assay [10], 1.5 µM (inactive); in assay [11], 3.87 µM (inactive); in assay [12], 2.32 µM (inactive). Further, the GI50 in assay [13] is 1.53 µM (inactive); in assay [14], 1.94 µM (inactive); in assay [15] it was 4.48 µM (inactive); in assay [16] it was 1.16 µM (inactive); in assay [17], 2.38 µM (inactive); in assay [18], 2.11 µM (inactive). Also, the GI50 was 0.885 µM (active) in assay [20] and 2.4 µM (inactive) in assay [19].

For `COc1ccc2[nH]cc(C=C3C(=O)NC(=S)NC3=O)c2c1`, the GI50 in assay [1] was 31.6 µM (inactive); in assay [2], > 100 µM (inactive); in [3], > 100 µM (inactive); in [4], > 100 µM (inactive); in assay [5], > 100 µM (inactive); in assay [6] it was 45.9 µM (inactive). The GI50 is 73.6 µM (inactive) in [7]; > 100 µM (inactive) in assay [8]; > 100 µM (inactive) in assay [9]; > 100 µM (inactive) in [10]; > 100 µM (inactive) in assay [11]; > 100 µM (inactive) in [12]. The GI50 in [13] is > 100 µM (inactive); in assay [14], > 100 µM (inactive); in assay [15], > 100 µM (inactive); in [17], > 100 µM (inactive); in assay [18], > 100 µM (inactive); in assay [20] it was 23.1 µM (inactive). In [19], the GI50 is 30.1 µM (inactive).

On to `COCCOc1nc(-c2ccccc2)nc2ccccc12`, for which the GI50 in assay [2] was 15 µM (inactive); in [3] it was 44.1 µM (inactive); in [4], 32.6 µM (inactive); in assay [5], 54.7 µM (inactive); in assay [6], 22.1 µM (inactive); in assay [7], 27.6 µM (inactive). Further, the GI50 in [8] was 98.2 µM (inactive); in [9] it was 30 µM (inactive); in assay [10], 27.7 µM (inactive); in assay [11], 37.2 µM (inactive); in assay [12] it was 32.5 µM (inactive); in assay [14], 19.3 µM (inactive). The GI50 in assay [15] was 34.5 µM (inactive); in [16] it was 15.7 µM (inactive); in assay [17], 53.5 µM (inactive); in assay [18], 27.5 µM (inactive); in assay [20] it was 60.8 µM (inactive); in [19], 19.7 µM (inactive).

For the compound `S=C(NCCc1ccccn1)N/N=C(\c1ccccc1)c1ccccn1`, the GI50 was 1.47 µM (inactive) in assay [1]; 0.211 µM (active) in assay [2]; < 0.0344 µM (active) in [3]; < 0.01 µM (active) in assay [4]; 3.4 µM (inactive) in assay [5]; 1.77 µM (inactive) in assay [6]. The GI50 in assay [7] was 1.63 µM (inactive); in [8], < 0.0103 µM (active); in assay [9], 2.76 µM (inactive); in assay [10] it was 0.0378 µM (active); in assay [11] it was < 0.01 µM (active); in assay [12], 8.2 µM (inactive). Also, the GI50 in assay [14] is 0.179 µM (active); in assay [15], 0.0583 µM (active); in assay [16] it was 0.0634 µM (active); in assay [17], 14.7 µM (inactive); in [18] it was < 0.015 µM (active); in assay [20], 6.47 µM (inactive). For the same compound, the GI50 in assay [19] is 1.36 µM (inactive).

Consider `COc1cc(OC)c2nc(C)c3c(c2c1)OCC3`, for which the GI50 was 61.1 µM (inactive) in assay [1]; > 100 µM (inactive) in assay [2]; > 100 µM (inactive) in assay [3]; > 100 µM (inactive) in assay [4]; > 100 µM (inactive) in [5]; 37.7 µM (inactive) in [6]. For the same compound, the GI50 was 40.6 µM (inactive) in assay [7]; > 100 µM (inactive) in assay [8]; > 100 µM (inactive) in assay [9]; > 100 µM (inactive) in [10]; > 100 µM (inactive) in assay [11]; > 100 µM (inactive) in assay [12]. In addition, the GI50 in assay [13] was > 100 µM (inactive); in assay [14], > 100 µM (inactive); in [15] it was > 100 µM (inactive); in assay [16] it was > 100 µM (inactive); in assay [17], > 100 µM (inactive); in [18] it was 89.3 µM (inactive). The GI50 in assay [20] is 61.2 µM (inactive); in [19], > 100 µM (inactive).

Regarding `CC(=O)N1OC(C)CC1Nc1ccc(Br)cc1` (stereo not drawn), the GI50 in [1] is > 100 µM (inactive); in assay [2] it was > 100 µM (inactive); in [3] it was 0.415 µM (active); in [5], 0.493 µM (active); in assay [6], 0.366 µM (active); in assay [7], > 100 µM (inactive). The GI50 in assay [8] was > 100 µM (inactive); in [9] it was 1.44 µM (inactive); in [10], 1.6 µM (inactive); in [11], 21.5 µM (inactive); in [12] it was 0.252 µM (active); in assay [13], 4.39 µM (inactive). In addition, the GI50 was 8.04 µM (inactive) in [14], 1.04 µM (active) in assay [15], 20.8 µM (inactive) in [18] and 1.42 µM (inactive) in assay [19].
